Among the data in the OligoGym collection are target mRNA inhibition values, retold here.

The target of one data set is HBV. As to conditions: ASO, HepG2, 0.07 µM.
The target in the next data set is IRF5. As to conditions: ASO.

Several values for one entry are separate records, joined by “and”; a condition that tells them apart may be missing. Identical values can stand only once. After the bases stand the sugars from the 5' end (letter, count) and the backbone: PS all phosphorothioate, else s phosphorothioate and o phosphodiester by linkage. HELM strings list units from the 5' end as sugar, base in round brackets, then linkage (d deoxyribose, r ribose, m 2'-O-methyl, p phosphodiester). Methylation of C is not given here. [moe] = 2'-O-(2-methoxyethyl) (MOE); [cEt] = constrained ethyl (cEt); [sp] = phosphorothioate linkage; e = 2'-O-(2-methoxyethyl) (MOE); k = constrained ethyl (cEt); d = 2'-deoxy (DNA)

With “RNA1{[moe](A)[sp].[moe](C)[sp].[moe](G)[sp].[moe](G)[sp].d(G)[sp].d(C)[sp].d(A)[sp].d(A)[sp].d(C)[sp].d(A)[sp].d(T)[sp].d(A)[sp].d(C)[sp].[moe](C)[sp].[moe](T)[sp].[moe](T)[sp].[moe](G)}$$$$V2.0”, in the data set with HBV, the target mRNA inhibition is 38% and 41%. Consider “RNA1{[moe](T)[sp].[moe](T)[sp].d(A)[sp].d(T)[sp].d(G)[sp].d(C)[sp].d(C)[sp].d(T)[sp].d(A)[sp].d(C)[sp].d(A)[sp].[moe](G)[sp].[moe](C)[sp].[moe](C)[sp].[moe](T)[sp].[moe](C)}$$$$V2.0”, for which, in the data set with HBV, the target mRNA inhibition was 44% and 46%.

For the substance “RNA1{[moe](T)[sp].[cEt](G)[sp].[cEt](A)[sp].d(G)[sp].d(A)[sp].d(G)[sp].d(A)[sp].d(A)[sp].d(G)[sp].d(T)[sp].d(C)[sp].d(C)[sp].d(A)[sp].[cEt](C)[sp].[cEt](C)[sp].[moe](A)}$$$$V2.0”, the target mRNA inhibition with HBV is 53% and 49%.

With “GGTCTGGCCCTTTTGG (sugars kkkddddddddkdkdk, PS)”, in the data set with IRF5 (KARPAS-229, 4 µM), the target mRNA inhibition was 0%. Still for that read-out and setting: with “AGGAGTGAGACGAGCA (sugars kkkddddddddkekek, PS)” the figure was 24%. “GTCTGGCCCTTTTGGA (sugars k3 d9 k3 e1, PS)”: the target mRNA inhibition with IRF5 (KARPAS-229, 4 µM) is 0%. The same measure, in the same setting: with “GAGTCTCAAACCAGGG (sugars kddddddddddkekek, PS)” the figure was 0%. Same read-out and setting: with “TCCAATTTTGCATTCC (sugars kkddddddddkekekk, PS)” the figure was 15%. In the data set with IRF5 (KARPAS-229, 4 µM), “TGAGTCATGGGCTGAG (sugars kkkddddddddkdkdk, PS)” yielded a target mRNA inhibition of 3%. Still for that read-out and setting: with TGCTCTAAACCATTCT (sugars k3 d10 k3, PS) the figure was 0%; with “GATGGTGTTATCTCCG (sugars k2 d8 e4 k2, PS)”, 0%.

In the data set with IRF5 (KARPAS-229, 4 µM), “TTATTTCTGCTCCAGG (sugars kkkdddddddddkeke, PS)” returned a target mRNA inhibition of 43%. As to “GGAAGTGAGTCTCAAA (sugars k3 d9 k3 e1, PS)”, the target mRNA inhibition in the data set with IRF5 (KARPAS-229, 0.44444 µM) was 21%; with IRF5 (KARPAS-229, 1.33333 µM) it was 13%; with IRF5 (KARPAS-229, 4 µM), 49% and 71%; in the data set with IRF5 (KARPAS-229, 12 µM), 76%. In the case of “AGCTTGGTCTTGACCT (sugars kkkddddddddkekek, PS)”, the target mRNA inhibition in the data set with IRF5 (KARPAS-229, 4 µM) was determined as 3%. On the same count and under the same terms, with “AGCTTGGTCTTGACCT (sugars kdddddddddkekeke, PS)” the figure was 14%; with “GTCTGGCCCTTTTGGA (sugars kkdddddddddkdkdk, PS)”, 0%. Same read-out and setting: with CAATGCAACATCCATC (sugars k3 d10 k3, PS) the figure was 0%; with “CCAATGCAACATCCAT (sugars kkdddddddddkekek, PS)”, 0%. The same measure, in the same setting: with “CTGTCACATCTCCACA (sugars kkddddddddddkeke, PS)” the figure was 19%. For the substance “GAGTCATGGGCTGAGG (sugars kkddddddddkekekk, PS)”, the target mRNA inhibition in the data set with IRF5 (KARPAS-229, 4 µM) amounted to 0%. Still for that read-out and setting: with “CATTCCATATACACAC (sugars kkkddddddddkdkdk, PS)” the figure was 40%. Still for that read-out and setting: the result for “GGTGTATTTCCCTGTC (sugars kkkddddddddkekek, PS)” reads 0%. For “TGTCTAGTGTCATGGA (sugars kkdkdddddddeeekk, PS)”, the target mRNA inhibition with IRF5 (A-431, 0.00412 µM) is 0%; in the data set with IRF5 (A-431, 0.01225 µM) it was 5%; with IRF5 (A-431, 0.03704 µM) it was 6%; in the data set with IRF5 (A-431, 0.11111 µM) it was 24%; with IRF5 (A-431, 0.33333 µM) it was 23%; in the data set with IRF5 (A-431, 1 µM), 41%. In the data set with IRF5 (KARPAS-229, 4 µM), “GGAGTGAGACGAGCAA (sugars kkddddddddddkeke, PS)” had a target mRNA inhibition of 33%. In turn, “GGTCTGGCCCTTTTGG (sugars kkdddddddddkekek, PS)” returned a target mRNA inhibition in the data set with IRF5 (KARPAS-229, 4 µM) of 3%. Still for that read-out and setting: the result for “GGTTCTTGGACTCTCA (sugars kddddddddddkekek, PS)” reads 9%.
